Laboratory results taken from PubChem BioAssay (NCI).
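Protocol summary: plate cells (96-well), add compound at 5 concentrations, incubate 48 h, interpolate endpoints linearly. At the GI50, growth is halved. The concentration for full growth arrest is given as TGI.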

Experiments:
Assay in all cases: NCI anticancer screen, dose series, 48 h
SF-295 CNS = system: SF-295 CNS
COLO 205 colon = system: COLO 205 colon
MDA-MB-231 breast = system: MDA-MB-231 breast
HCT-116 colon = system: HCT-116 colon
K-562 leukemia = system: K-562 leukemia
HT29 colon = system: HT29 colon
NCI-H522 lung = system: NCI-H522 lung
SK-MEL-28 melanoma = system: SK-MEL-28 melanoma
HCC-2998 colon = system: HCC-2998 colon
RXF 393 renal = system: RXF 393 renal

Compound | GI50 (SF-295 CNS) [µM] | TGI (SF-295 CNS) [µM] | GI50 (COLO 205 colon) [µM] | TGI (COLO 205 colon) [µM] | GI50 (MDA-MB-231 breast) [µM] | TGI (MDA-MB-231 breast) [µM] | GI50 (HCT-116 colon) [µM] | TGI (HCT-116 colon) [µM] | GI50 (K-562 leukemia) [µM] | TGI (K-562 leukemia) [µM] | GI50 (HT29 colon) [µM] | TGI (HT29 colon) [µM] | GI50 (NCI-H522 lung) [µM] | TGI (NCI-H522 lung) [µM] | GI50 (SK-MEL-28 melanoma) [µM] | TGI (SK-MEL-28 melanoma) [µM] | GI50 (HCC-2998 colon) [µM] | TGI (HCC-2998 colon) [µM] | GI50 (RXF 393 renal) [µM] | TGI (RXF 393 renal) [µM]
OB([O][Hg][c]1ccccc1)[O][Hg][c]1ccccc1 | 1.6 | 3.17 | 0.502 | 1.46 | 0.628 | 1.89 | 0.161 | 0.307 | 0.234 | 4.96 | 0.384 | 1.75 | 0.0279 | 0.0752 | 0.318 | 1.33 | 1.86 | 3.36 | 0.229 | 0.829
COC(=O)Nc1nc2ccc(C(=O)c3ccc[nH]3)cc2[nH]1 |  | > 100 |  | > 100 |  | > 100 |  | > 100 |  |  |  | > 100 |  |  |  | > 100 |  | > 100 |  | 4.78
Cc1ccc(-c2c(C#N)c(N)nc(N3CCOCC3)c2C#N)o1 |  |  |  |  | 21 | 80.7 | 33.5 | > 100 | 73.8 | > 100 | 30.1 | > 100 | 36.4 | > 100 | 71.3 | > 100 |  |  | 40.7 | > 100
COc1cc(-c2cc(C(=O)N3CCN(C(=O)c4ccccc4NCc4ccco4)CC3)nc3cc(-c4ccccc4)nn23)cc(OC)c1OC | 1.59 | > 93.1 | 1.48 | 8.66 | 5.11 | > 100 | 3.26 | > 100 | 1.95 | > 100 | 1.56 | 10.7 | 0.859 | > 26.5 | 16.6 | > 100 | 7.56 | > 100 | 1.53 | 4.17
O=C(Nc1ccncc1)C(=O)c1cn(S(=O)(=O)c2ccc(Br)cc2)c2ccccc12 | 2.26 | > 100 | 27.7 | > 100 | 10.2 | 83 | 3.71 | > 100 | 2.49 | > 100 | 2.82 | > 100 | 1.94 | > 100 | 4.77 | > 100 | 23.6 | > 100 | 7.28 | > 100
Cc1ccc(S(=O)(=O)N/N=C/C(Br)=C(/Br)C(=O)O)cc1 |  | 36.3 |  | 13.3 |  | 36 |  |  |  |  |  | 26.8 |  |  |  | 9.65 |  | 15.7 |  | 5.17
COC(=O)[C@]12CC[C@@H](C)[C@H](C)[C@@H]1C1=CC[C@@H]3[C@@]4(C)CC(=O)[C@H](O)[C@@]5(C)COC(=C45)C[C@@]3(C)[C@]1(C)CC2 | 17.9 | 33.7 | 17.9 | 33.5 | 20.1 | 42.4 | 18.7 | 34.3 | 20.5 | 41.8 | 19.2 | 34.7 | 19.4 | 35.7 | 19.2 | 38.6 | 17.7 | 33.1 | 15.2 | 31.4
CC12OC(C(=O)C13CC3)C1C(=O)c3ccccc3C(=O)C12 (stereo not given) |  |  | 89 | > 100 | 46.8 | > 100 | 34 | > 100 | 36.8 | > 100 | 48.7 | > 100 | 53.3 | > 100 | 21.6 | 62.1 | 36.3 | > 100 | 10 | 24.9
C1=CN2C[n+]3cccc(OCc4ccccc4)c3N=C2C(OCc2ccccc2)=C1 |  | 50 |  | 18 |  | 56.1 |  | > 100 |  | 42.4 |  | 47.1 |  | 15.8 |  | 36 |  | 23.2 |  | > 100
O=S(=O)(c1ccc(NC(=S)N/N=C/c2ccccc2O)cc1)N1CCCCC1 |  | 3.45 |  | 36.5 |  | > 44.5 |  | 7 |  |  |  | > 68.8 |  | > 57.5 |  | > 52 |  |  |  | > 100
COc1cc2c(cc1OC)C(=O)C(Br)CC2 (stereo not given) | 14.3 | 28.4 | 2.03 | 3.72 | 3.56 | 13.4 | 1.74 | 3.72 | 3.96 | > 100 | 3.72 | 12.1 | 1.57 | 3.17 | 4.85 | 16.3 | 11.5 | 24.5 | 1.55 | 3.01
O=C(CCCc1c[nH]c2ccccc12)NC1CC(=O)c2c(Br)sc(Br)c21 (stereo not given) | 22.7 | 54.4 | 19.8 | 41.3 | 16.5 | 32.1 |  |  | 2.01 | 5.56 | 7.13 | 22 | 21.1 | 52.2 | 2.77 | 9.02 | 2.06 | 4.03 | 14.7 | 80.8
COc1cc(C(=O)O)c([N+](=O)[O-])c(OC)c1OC |  | > 100 |  | > 100 |  | > 100 |  | > 100 |  |  |  | > 100 |  | > 100 |  | > 100 |  | > 100 |  | > 100
COc1cccc(NC(=O)c2sc3nc4c(cc3c2N)CCCC4)c1 | 0.481 | 14 | 3.83 | > 100 | 3.88 | 26.4 | 0.475 | > 100 |  |  |  |  | 0.806 | > 100 | 0.905 | > 100 | 1.6 | > 100 | 0.365 | 3.34
O=C1C2CC(Cl)C(SSC3CC4C(=O)N(SC(Cl)(Cl)C(Cl)Cl)C(=O)C4CC3Cl)CC2C(=O)N1SC(Cl)(Cl)C(Cl)Cl (stereo not given) |  | 17.1 |  | 4.87 |  | 3.16 |  | 7.38 |  | 5.01 |  |  |  | 1.5 |  | 6.18 |  | 16.4 |  | 3.17
NC(N)=NC(CC(=O)O)c1ccccc1 (stereo not given) |  | > 100 |  | > 100 |  | > 100 |  | > 100 |  | > 100 |  | > 100 |  | > 100 |  | > 100 |  |  |  | > 100
CC(Cc1ccc(Cl)cc1Cl)NO (stereo not given) |  | > 100 |  | > 100 |  | > 100 |  | > 100 |  | > 100 |  | > 100 |  | > 100 |  | > 100 |  |  |  | > 100
